Laboratory results taken from patent publication US10392391B2 (Vertex Pharmaceuticals Incorporated, priority 2012, dated 2019).

target: ATR kinase (full-length ATR) (Homo sapiens (Human), UniProt Q13535); assay: ATR inhibition assay (radioactive-phosphate incorporation); type: biochemical; details: not given
In short: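 Ki(app) was fitted by non-linear regression to background-corrected initial rates. Full-length ATR (5 nM) phosphorylated 800 μM peptide using 10 μM [γ-33P]ATP at 25° C in Tris/HCl pH 7.5 buffer with MgCl2, DTT and 7% DMSO. After 10-minute compound pre-incubation and 24-hour reaction, phosphocellulose filters were scintillation counted.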

Sequence of ATR kinase (full-length ATR) (Q13535 whole entry): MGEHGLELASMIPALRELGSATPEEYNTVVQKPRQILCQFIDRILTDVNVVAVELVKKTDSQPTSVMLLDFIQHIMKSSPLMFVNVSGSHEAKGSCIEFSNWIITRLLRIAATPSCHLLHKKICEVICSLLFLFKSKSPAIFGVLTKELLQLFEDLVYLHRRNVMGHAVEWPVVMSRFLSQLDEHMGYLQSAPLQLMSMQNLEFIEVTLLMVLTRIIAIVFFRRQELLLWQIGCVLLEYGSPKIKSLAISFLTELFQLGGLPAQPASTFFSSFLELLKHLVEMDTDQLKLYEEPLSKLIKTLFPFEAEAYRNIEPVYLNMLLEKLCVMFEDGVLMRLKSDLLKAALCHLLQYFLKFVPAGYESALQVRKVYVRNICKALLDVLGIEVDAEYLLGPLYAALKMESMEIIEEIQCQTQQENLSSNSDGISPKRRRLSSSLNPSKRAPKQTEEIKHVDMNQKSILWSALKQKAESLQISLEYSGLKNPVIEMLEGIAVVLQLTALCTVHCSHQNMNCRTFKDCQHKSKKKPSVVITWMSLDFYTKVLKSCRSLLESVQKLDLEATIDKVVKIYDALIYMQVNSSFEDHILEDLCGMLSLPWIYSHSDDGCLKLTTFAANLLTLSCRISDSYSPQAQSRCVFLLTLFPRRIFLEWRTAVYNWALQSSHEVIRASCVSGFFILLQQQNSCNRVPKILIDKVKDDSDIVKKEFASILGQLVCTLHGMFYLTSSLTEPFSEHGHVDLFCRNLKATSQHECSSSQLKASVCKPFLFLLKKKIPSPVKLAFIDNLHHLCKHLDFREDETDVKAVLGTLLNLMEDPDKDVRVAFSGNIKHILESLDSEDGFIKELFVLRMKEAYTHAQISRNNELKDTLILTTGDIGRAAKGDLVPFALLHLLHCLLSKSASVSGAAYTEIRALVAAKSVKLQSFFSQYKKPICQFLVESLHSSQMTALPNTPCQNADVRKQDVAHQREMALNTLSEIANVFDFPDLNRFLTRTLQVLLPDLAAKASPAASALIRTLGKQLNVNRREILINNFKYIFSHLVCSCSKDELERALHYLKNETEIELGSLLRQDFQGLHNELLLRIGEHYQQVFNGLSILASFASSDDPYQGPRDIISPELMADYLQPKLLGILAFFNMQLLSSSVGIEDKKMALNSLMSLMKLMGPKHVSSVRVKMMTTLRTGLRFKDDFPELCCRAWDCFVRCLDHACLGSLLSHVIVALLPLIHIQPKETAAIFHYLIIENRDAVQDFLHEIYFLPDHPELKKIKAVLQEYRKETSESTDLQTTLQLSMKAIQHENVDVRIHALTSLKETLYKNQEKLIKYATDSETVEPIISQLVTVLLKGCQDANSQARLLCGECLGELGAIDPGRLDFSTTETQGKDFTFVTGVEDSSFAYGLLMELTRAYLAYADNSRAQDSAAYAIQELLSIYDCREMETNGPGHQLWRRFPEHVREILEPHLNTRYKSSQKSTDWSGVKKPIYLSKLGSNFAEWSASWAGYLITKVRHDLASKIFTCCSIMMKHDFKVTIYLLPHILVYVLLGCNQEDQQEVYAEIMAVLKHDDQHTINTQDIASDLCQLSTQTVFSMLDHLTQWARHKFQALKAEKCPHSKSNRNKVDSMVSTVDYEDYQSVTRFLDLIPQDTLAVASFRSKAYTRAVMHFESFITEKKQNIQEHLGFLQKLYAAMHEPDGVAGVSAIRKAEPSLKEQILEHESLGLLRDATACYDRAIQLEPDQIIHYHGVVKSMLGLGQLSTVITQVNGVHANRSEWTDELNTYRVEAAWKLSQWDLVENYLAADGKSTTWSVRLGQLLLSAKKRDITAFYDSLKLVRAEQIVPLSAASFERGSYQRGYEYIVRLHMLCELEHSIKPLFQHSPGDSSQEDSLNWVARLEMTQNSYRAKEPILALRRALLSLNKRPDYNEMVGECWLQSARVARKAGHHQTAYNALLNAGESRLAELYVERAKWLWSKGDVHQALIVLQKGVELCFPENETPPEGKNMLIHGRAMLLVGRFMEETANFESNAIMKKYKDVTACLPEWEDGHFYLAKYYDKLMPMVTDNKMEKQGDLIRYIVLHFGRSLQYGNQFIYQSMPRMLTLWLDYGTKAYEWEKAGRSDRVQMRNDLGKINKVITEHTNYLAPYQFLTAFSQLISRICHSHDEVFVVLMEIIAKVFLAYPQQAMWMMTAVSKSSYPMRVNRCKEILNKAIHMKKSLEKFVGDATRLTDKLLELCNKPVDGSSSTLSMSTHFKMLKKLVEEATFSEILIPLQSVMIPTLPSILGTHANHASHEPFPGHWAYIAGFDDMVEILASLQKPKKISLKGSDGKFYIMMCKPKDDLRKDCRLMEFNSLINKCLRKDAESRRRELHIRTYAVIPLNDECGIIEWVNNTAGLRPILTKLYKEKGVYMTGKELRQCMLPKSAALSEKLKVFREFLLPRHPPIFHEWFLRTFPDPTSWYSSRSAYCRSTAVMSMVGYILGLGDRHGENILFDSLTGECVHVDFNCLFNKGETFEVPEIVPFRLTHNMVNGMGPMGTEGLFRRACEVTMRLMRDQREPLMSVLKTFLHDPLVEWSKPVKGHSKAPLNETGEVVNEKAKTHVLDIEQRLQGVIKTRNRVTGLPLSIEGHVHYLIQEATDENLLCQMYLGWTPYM

| SMILES | Ki |
| --- | --- |
| C[N+]1([O-])CCN(C(=O)C2CCN(c3c(F)cncc3NC(=O)c3c(N)nn4cc(F)cnc34)CC2)CC1 [I-G-95, 4-(1-(3-(2-amino-6-fluoropyrazolo[1,5-a]pyrimidine-3-carboxamido)-5-fluoropyridin-4-yl)piperidine-4-carbonyl)-1-methylpiperazine 1-oxide] | 10 to 1000 nM |
| Nc1nn2cc(F)cnc2c1C(=O)Nc1cnccc1CN1CCCC1=O [I-C-76, 2-amino-6-fluoro-N-(4-((2-oxopyrrolidin-1-yl)methyl)pyridin-3-yl)pyrazolo[1,5-a]pyrimidine-3-carboxamide] | 1000 to 5000 nM |
| Cn1ccc2cncc(NC(=O)c3c(N)nn4cc(F)cnc34)c21 [I-N-259, 2-amino-6-fluoro-N-(1-methyl-1H-pyrrolo[3,2-c]pyridin-7-yl)pyrazolo[1,5-a]pyrimidine-3-carboxamide] | 1000 to 5000 nM |
| Nc1nn2cc(F)cnc2c1C(=O)Nc1cnccc1-c1cccnc1Cl [I-C-37, 2-amino-N-(2-chloro-[3,4′-bipyridin]-3′-yl)-6-fluoropyrazolo[1,5-a]pyrimidine-3-carboxamide] | 1000 to 5000 nM |

same assay, conditions: Ki(app), 5 nM full-length ATR, 10 μM ATP, 25° C.

| SMILES | Ki |
| --- | --- |
| CN1CCN(C(=O)N2CCN(c3c(F)cncc3NC(=O)c3c(N)nn4cc(F)cnc34)CC2)CC1 [I-N-140, 2-amino-6-fluoro-N-(5-fluoro-4-(4-(4-methylpiperazine-1-carbonyl)piperazin-1-yl)pyridin-3-yl)pyrazolo[1,5-a]pyrimidine-3-carboxamide] | 10 to 1000 nM |
| Nc1nn2cc(F)cnc2c1C(=O)Nc1cnccc1N1CCC(S(=O)(=O)C2COC2)CC1 [I-N-200, 2-amino-6-fluoro-N-(4-(4-(oxetan-3-ylsulfonyl)piperidin-1-yl)pyridin-3-yl)pyrazolo[1,5-a]pyrimidine-3-carboxamide] | 10 to 1000 nM |
| CN(C)CCOc1cc(Cl)ncc1NC(=O)c1c(N)nn2cc(Cl)cnc12 [I-O-68, 2-amino-6-chloro-N-(6-chloro-4-(2-(dimethylamino)ethoxy)pyridin-3-yl)pyrazolo[1,5-a]pyrimidine-3-carboxamide] | 10 to 1000 nM |
| CN1CCC[C@@H]1C(=O)N1CCN(c2c(F)cncc2NC(=O)c2c(N)nn3cc(F)cnc23)CC1 [I-N-181, (R)-2-amino-6-fluoro-N-(5-fluoro-4-(4-(1-methylpyrrolidine-2-carbonyl)piperazin-1-yl)pyridin-3-yl)pyrazolo[1,5-a]pyrimidine-3-carboxamide] | 10 to 1000 nM |
| CN1CCC(Oc2ccncc2NC(=O)c2c(N)nn3cc(F)cnc23)CC1 [I-O-12, 2-amino-6-fluoro-N-(4-((1-methylpiperidin-4-yl)oxy)pyridin-3-yl)pyrazolo[1,5-a]pyrimidine-3-carboxamide] | 10 to 1000 nM |
| C[N+]1([O-])CCc2c(cncc2NC(=O)c2c(N)nn3cc(F)cnc23)C1 (stereo not shown) [I-C-9, 5-(2-amino-6-fluoropyrazolo[1,5-a]pyrimidine-3-carboxamido)-2-methyl-1,2,3,4-tetrahydro-2,7-naphthyridine 2-oxide] | 10 to 1000 nM |
| Nc1nn2cc(F)cnc2c1C(=O)Nc1cncc(F)c1N1CCS(=O)(=O)CC1 [I-N-250, 2-amino-N-(4-(1,1-dioxidothiomorpholino)-5-fluoropyridin-3-yl)-6-fluoropyrazolo[1,5-a]pyrimidine-3-carboxamide] | 10 to 1000 nM |
| CN1CC[C@@H](Oc2ccncc2NC(=O)c2c(N)nn3cc(Cl)cnc23)C1 [I-O-63, (R)-2-amino-6-chloro-N-(4-((1-methylpyrrolidin-3-yl)oxy)pyridin-3-yl)pyrazolo[1,5-a]pyrimidine-3-carboxamide] | 10 to 1000 nM |
| COc1ccncc1NC(=O)c1c(N)nn2cc(C(C)C#N)cnc12 (stereo not shown) [I-O-21, 2-amino-6-(1-cyanoethyl)-N-(4-methoxypyridin-3-yl)pyrazolo[1,5-a]pyrimidine-3-carboxamide] | 10 to 1000 nM |
| Cc1ccnn1-c1ccncc1NC(=O)c1c(N)nn2cc(F)cnc12 [I-N-223, 2-amino-6-fluoro-N-(4-(5-methyl-1H-pyrazol-1-yl)pyridin-3-yl)pyrazolo[1,5-a]pyrimidine-3-carboxamide] | 10 to 1000 nM |
| CN1CCc2c(cncc2NC(=O)c2c(N)nn3cc(F)cnc23)C1 [I-C-8, 2-amino-6-fluoro-N-(7-methyl-5,6,7,8-tetrahydro-2,7-naphthyridin-4-yl)pyrazolo[1,5-a]pyrimidine-3-carboxamide] | 10 to 1000 nM |
| Nc1nn2cc(F)cnc2c1C(=O)Nc1cnccc1-c1ccc(C(=O)N2CCC(N3CCCC3)CC2)nc1 [I-C-53, 2-amino-6-fluoro-N-(6-(4-(pyrrolidin-1-yl)piperidine-1-carbonyl)-[3,4′-bipyridin]-3′-yl)pyrazolo[1,5-a]pyrimidine-3-carboxamide] | 10 to 1000 nM |
| CN(C)CC1CCN(c2ccncc2NC(=O)c2c(N)nn3cc(Cl)cnc23)CC1 [I-N-45, 2-amino-6-chloro-N-(4-(4-((dimethylamino)methyl)piperidin-1-yl)pyridin-3-yl)pyrazolo[1,5-a]pyrimidine-3-carboxamide] | 10 to 1000 nM |
| Nc1nn2cc(F)cnc2c1C(=O)Nc1cncc(F)c1N1CCC(CN2CCCC2=O)CC1 [I-N-213, 2-amino-6-fluoro-N-(5-fluoro-4-(4-((2-oxopyrrolidin-1-yl)methyl)piperidin-1-yl)pyridin-3-yl)pyrazolo[1,5-a]pyrimidine-3-carboxamide] | 10 to 1000 nM |
| Nc1nn2cc(F)cnc2c1C(=O)Nc1cncc(F)c1N1CCC(C(=O)N2CCOCC2)CC1 [I-G-36, 2-amino-6-fluoro-N-(5-fluoro-4-(4-(morpholine-4-carbonyl)piperidin-1-yl)pyridin-3-yl)pyrazolo[1,5-a]pyrimidine-3-carboxamide] | 10 to 1000 nM |
| Nc1nn2cc(Cl)cnc2c1C(=O)Nc1cnccc1N1CCC(N2CC[C@@H](F)C2)CC1 [I-N-98, (R)-2-amino-6-chloro-N-(4-(4-(3-fluoropyrrolidin-1-yl)piperidin-1-yl)pyridin-3-yl)pyrazolo[1,5-a]pyrimidine-3-carboxamide] | 10 to 1000 nM |
| CN1CCCN(C(=O)C2CCN(c3c(F)cncc3NC(=O)c3c(N)nn4cc(F)cnc34)CC2)CC1 [I-G-6, 2-amino-6-fluoro-N-(5-fluoro-4-(4-(4-methyl-1,4-diazepane-1-carbonyl)piperidin-1-yl)pyridin-3-yl)pyrazolo[1,5-a]pyrimidine-3-carboxamide] | 10 to 1000 nM |
| Cc1cncc(NC(=O)c2c(N)nn3cc(F)cnc23)c1N1CCC(C(=O)N2CCNCC2)CC1 [I-G-56, 2-amino-6-fluoro-N-(5-methyl-4-(4-(piperazine-1-carbonyl)piperidin-1-yl)pyridin-3-yl)pyrazolo[1,5-a]pyrimidine-3-carboxamide] | 10 to 1000 nM |
| CC1(S(C)(=O)=O)CCN(c2ccncc2NC(=O)c2c(N)nn3cc(F)cnc23)CC1 [I-N-243, 2-amino-6-fluoro-N-(4-(4-methyl-4-(methylsulfonyl)piperidin-1-yl)pyridin-3-yl)pyrazolo[1,5-a]pyrimidine-3-carboxamide] | 10 to 1000 nM |
| C[C@H]1CN(C2COC2)CCN1c1ccncc1NC(=O)c1c(N)nn2cc(F)cnc12 [I-N-24, (S)-2-amino-6-fluoro-N-(4-(2-methyl-4-(oxetan-3-yl)piperazin-1-yl)pyridin-3-yl)pyrazolo[1,5-a]pyrimidine-3-carboxamide] | 10 to 1000 nM |
| C[C@@H]1CN(C(=O)C2CCN(c3c(F)cncc3NC(=O)c3c(N)nn4cc(F)cnc34)CC2)CCN1 [I-G-45, (R)-2-amino-6-fluoro-N-(5-fluoro-4-(4-(3-methylpiperazine-1-carbonyl)piperidin-1-yl)pyridin-3-yl)pyrazolo[1,5-a]pyrimidine-3-carboxamide] | 10 to 1000 nM |
| Nc1nn2cc(F)cnc2c1C(=O)Nc1cncc(F)c1N1CCC(c2nccs2)CC1 [I-N-184, 2-amino-6-fluoro-N-(5-fluoro-4-(4-(thiazol-2-yl)piperidin-1-yl)pyridin-3-yl)pyrazolo[1,5-a]pyrimidine-3-carboxamide] | 10 to 1000 nM |
| Nc1nn2cc(Cl)cnc2c1C(=O)Nc1cnccc1OCC(F)(F)F [I-O-59, 2-amino-6-chloro-N-(4-(2,2,2-trifluoroethoxy)pyridin-3-yl)pyrazolo[1,5-a]pyrimidine-3-carboxamide] | 10 to 1000 nM |
| CN(C)CCOc1ccncc1NC(=O)c1c(N)nn2cc(Cl)cnc12 [I-O-48, 2-amino-6-chloro-N-(4-(2-(dimethylamino)ethoxy)pyridin-3-yl)pyrazolo[1,5-a]pyrimidine-3-carboxamide] | 10 to 1000 nM |
| Cn1c(-c2ccncc2NC(=O)c2c(N)nn3cc(F)cnc23)cccc1=O [I-C-58, 2-amino-6-fluoro-N-(1-methyl-6-oxo-1,6-dihydro-[2,4′-bipyridin]-3′-yl)pyrazolo[1,5-a]pyrimidine-3-carboxamide] | 10 to 1000 nM |
| CN1CCC(S(=O)(=O)N2CCN(c3ccncc3NC(=O)c3c(N)nn4cc(F)cnc34)CC2)CC1 [I-N-188, 2-amino-6-fluoro-N-(4-(4-((1-methylpiperidin-4-yl)sulfonyl)piperazin-1-yl)pyridin-3-yl)pyrazolo[1,5-a]pyrimidine-3-carboxamide] | 10 to 1000 nM |
| CN1CC2(CCC1=O)CCN(c1ccncc1NC(=O)c1c(N)nn3cc(F)cnc13)CC2 [I-N-231, 2-amino-6-fluoro-N-(4-(2-methyl-3-oxo-2,9-diazaspiro[5.5]undecan-9-yl)pyridin-3-yl)pyrazolo[1,5-a]pyrimidine-3-carboxamide] | 10 to 1000 nM |
| CC(C)Oc1ccncc1NC(=O)c1c(N)nn2cc(CC#N)cnc12 [I-O-35, 2-amino-6-(cyanomethyl)-N-(4-isopropoxypyridin-3-yl)pyrazolo[1,5-a]pyrimidine-3-carboxamide] | < 10 nM |
| CN1CC2(CCN(c3ccncc3NC(=O)c3c(N)nn4cc(F)cnc34)CC2)CC1=O [I-N-236, 2-amino-6-fluoro-N-(4-(2-methyl-3-oxo-2,8-diazaspiro[4.5]decan-8-yl)pyridin-3-yl)pyrazolo[1,5-a]pyrimidine-3-carboxamide] | 10 to 1000 nM |
| CN1CCN(CC2CCN(c3c(F)cncc3NC(=O)c3c(N)nn4cc(C5(C#N)CC5)cnc34)CC2)CC1 [I-N-192, 2-amino-6-(1-cyanocyclopropyl)-N-(5-fluoro-4-(4-((4-methylpiperazin-1-yl)methyl)piperidin-1-yl)pyridin-3-yl)pyrazolo[1,5-a]pyrimidine-3-carboxamide] | 10 to 1000 nM |
